Measured values: patent US12571805B2, “Methods and compositions for determining OxPL-associated diseases and disorders” (The Regents of the University of California, priority 2019, dated 2026)

Experiments:
primary hepatocytes = experiment: OxPAPC treatment of primary hepatocytes: ROS, mitochondrial membrane potential, fatty acid oxidation, SOD activity; type: cell-based, mouse; conditions: 200 μM MnTBAP 1 hour, then OxPAPC 100 μg/mL 4 hours, Ldlr−/− hepatocytes
Procedure: Primary hepatocyte isolation: Primary hepatocytes were isolated from 6-week-old Ldlr^−/− and E06-scFvLdlr^−/− mice by a 2-step collagenase perfusion method. Briefly, HBSS (Life Technologies Co.; no Calcium and Magnesium, 0.5 mM EDTA, 25 mM HEPES) was used to perfuse liver at 10 mL/min speed until the liver turns into pale. Afterward, the liver was perfused with HBSS digestion buffer (Life Technologies Co.; 30 mg/100 mL collagenase I, 2 tablet/100 mL protease inhibitor) at 15 mL/min speed for 18 min. After sequential flows, cells were smashed through 100 μm strainer and washed with Williams' Medium E (Gibco, Grand Island, NY). Hepatocytes were isolated by density gradient centrifugation using percoll (Pharmacia, Sweden). Hepatocytes with 95% viability were cultured in Williams' Medium E supplemented with 5% serum, 0.5% penicillin/streptomycin and 15 mM HEPES at 37° C. in a 5% CO2 incubator overnight before use in experimentation.
ROS and Mitochondrial membrane potential measurement: Total ROS was determined with Total ROS detection Kit (ENZ-51011 Enzo Life Sciences Inc.) and mitochondrial ROS levels using MitoSOX (Invitrogen) following the manufacturers' instructions. Mitochondrial membrane potential (Ψm) was measured using TMRM as previously described (Shimada et al., 2012).
Ex vivo/in vitro fatty acid oxidation assay: Liver or adipose tissues were dissected, weighted, quickly rinsed in PBS. Minced tissues were placed in 96-well tissue culture plate. […] Fatty Acid Oxidation was measured with combination of Fatty Acid Oxidation Assay Kit (Abcam) and Oxygen Consumption Assay Kit (Abcam) according to the manufacturer's instruction. […] Fluorescence was measured at 37° C. for 30 min by Tecan Infinite M200 Pro.
In vitro modification of SOD and SOD activity: Recombinant human MnSOD (Abcam, ab82656) was incubated with POVPC (Avanti Polar Lipids, 870606) (molar ration 1:40) or vehicle at 37° C. overnight. […] SOD activity of recombinant and modified MnSOD and liver and cell lysates was measured with Superoxide Dismutase Activity Assay Kit (Abcam) according to the manufacturer's instruction.

Recombinant human MnSOD = target: T1, Recombinant human MnSOD (Homo sapiens, UniProt P04179); experiment: In vitro modification of SOD and SOD activity; type: biochemical; conditions: POVPC molar ratio 1:40, 37° C. overnight, vs native MnSOD
T1 construct: purchased Abcam ab82656
T1 sequence (P04179 25-222): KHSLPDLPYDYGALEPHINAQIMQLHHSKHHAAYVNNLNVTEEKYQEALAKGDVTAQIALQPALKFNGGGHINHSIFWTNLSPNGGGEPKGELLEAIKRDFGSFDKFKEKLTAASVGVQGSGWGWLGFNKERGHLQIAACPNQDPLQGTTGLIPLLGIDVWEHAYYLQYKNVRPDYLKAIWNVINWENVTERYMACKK
Procedure: In vitro modification of SOD and SOD activity: Recombinant human MnSOD (Abcam, ab82656) was incubated with POVPC (Avanti Polar Lipids, 870606) (molar ration 1:40) or vehicle at 37° C. overnight. 300 μg/mL NaBH3CN was added to stabilize reversible OxPL adducts. Both native and POVPC modified MnSOD were dialyzed extensively against PBS. SOD activity of recombinant and modified MnSOD and liver and cell lysates was measured with Superoxide Dismutase Activity Assay Kit (Abcam) according to the manufacturer's instruction.

| Compound | OxPL-diminished mitochondrial membrane potential (primary hepatocytes) | mitochondrial ROS accumulation (primary hepatocytes) | total ROS accumulation (primary hepatocytes) | MnSOD activity of POVPC modified MnSOD (Recombinant human MnSOD) |
| --- | --- | --- | --- | --- |
| O=C(O)c1ccc(/C2=C3\C=CC(=N3)/C(c3ccc(C(=O)O)cc3)=c3/cc/c4[n]3[Mn]([Cl])[n]3c2ccc3/C(c2ccc(C(=O)O)cc2)=C2/C=CC(=N2)\C=4c2ccc(C(=O)O)cc2)cc1 [MnTBAP] | restored | abrogated | abrogated |  |
| CCCCCCCCCCCCCCCC(=O)OC[C@H](COP(=O)([O-])OCC[N+](C)(C)C)OC(=O)CCCC=O [POVPC, 1-palmitoyl-2-(5′-oxo-valeroyl)-sn-glycero-3-phosphocholine] |  |  |  | significantly decreased activity |
